The target in this assay is T1, human kinase Mps-1 (Homo sapiens, UniProt P33981).
T1 construct: N-terminally GST-tagged human full length recombinant Mps-1 kinase; GST (N); purchased Invitrogen, Karslruhe, Germany PV4071
T1 sequence (P33981 1-857): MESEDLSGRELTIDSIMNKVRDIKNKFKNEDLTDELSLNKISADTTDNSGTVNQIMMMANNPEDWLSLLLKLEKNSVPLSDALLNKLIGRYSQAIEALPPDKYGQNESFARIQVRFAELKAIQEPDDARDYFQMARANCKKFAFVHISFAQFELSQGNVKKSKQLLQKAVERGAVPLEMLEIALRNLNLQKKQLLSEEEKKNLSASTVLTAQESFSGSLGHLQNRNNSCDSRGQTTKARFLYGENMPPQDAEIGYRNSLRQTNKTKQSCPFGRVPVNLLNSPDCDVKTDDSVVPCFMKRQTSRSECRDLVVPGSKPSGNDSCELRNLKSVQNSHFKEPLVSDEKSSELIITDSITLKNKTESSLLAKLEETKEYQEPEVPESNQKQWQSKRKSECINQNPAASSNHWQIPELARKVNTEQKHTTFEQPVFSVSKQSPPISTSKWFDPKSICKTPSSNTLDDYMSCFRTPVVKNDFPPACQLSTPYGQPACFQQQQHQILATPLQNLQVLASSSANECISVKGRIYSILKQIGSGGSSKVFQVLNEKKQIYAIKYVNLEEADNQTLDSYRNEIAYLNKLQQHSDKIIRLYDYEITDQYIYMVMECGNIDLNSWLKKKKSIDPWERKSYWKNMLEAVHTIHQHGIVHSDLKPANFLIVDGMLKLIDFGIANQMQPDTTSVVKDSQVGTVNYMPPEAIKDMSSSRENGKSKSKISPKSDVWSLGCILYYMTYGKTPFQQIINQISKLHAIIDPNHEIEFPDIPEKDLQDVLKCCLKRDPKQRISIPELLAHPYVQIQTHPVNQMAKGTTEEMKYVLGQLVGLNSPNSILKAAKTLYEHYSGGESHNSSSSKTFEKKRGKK
The assay can be described thus: Mps-1 kinase assay (TR-FRET). The settings on record: Mps-1 TR-FRET kinase assay; avg; read-out: Mps1 avg (IC50 [mol/l]). The format is biochemical. On the procedure: The human kinase Mps-1 phosphorylates a biotinylated substrate peptide. Detection of the phosphorylated product is achieved by time-resolved fluorescence resonance energy transfer (TR-FRET) from Europium-labelled anti-phospho-Serine/Threonine antibody as donor to streptavidin labelled with cross-linked allophycocyanin (SA-XLent) as acceptor. Compounds are tested for their inhibition of the kinase activity.
N-terminally GST-tagged human full length recombinant Mps-1 kinase (purchased from Invitrogen, Karslruhe, Germany, cat. no PV4071) was used. As substrate for the kinase reaction a biotinylated peptide of the amino-acid sequence biotin-Ahx-PWDPDDADITEILG (C-terminus in amide form, purchased from Biosyntan GmbH, Berlin) was used.
For the assay 50 nl of a 100-fold concentrated solution of the test compound in DMSO was pipetted into a black low volume 384we11 microtiter plate (Greiner Bio-One, Frickenhausen, Germany), 2 μl of a solution of Mps-1 in assay buffer [0.1 mM sodium-ortho-vanadate, 10 mM MgCl2,2 mM DTT, 25 mM Hepes pH 7.7, 0.05% BSA (w/v), 0.001% Pluronic F-127] were added and the mixture was incubated for 15 min at 22° C. to allow pre-binding of the test compounds to Mps-1 before the start of the kinase reaction. Then the kinase reaction was started by the addition of 3 μl of a solution of 16.7 μM adenosine-tri-phosphate (ATP, 16.7 μM=>final conc. in the 5 μl assay volume is 10 μM) and peptide substrate (1.67 μM=>final conc. in the 5 μl assay volume is 1 μM) in assay buffer and the resulting mixture was incubated for a reaction time of 60 min at 22° C. The concentration of Mps-1 in the assay was adjusted to the activity of the enzyme lot and was chosen appropriate to have the assay in the linear range, typical enzyme concentrations were in the range of about 0.5 nM (final conc. in the 5 μl assay volume). The reaction was stopped by the addition of 5 μl of a solution of TR-FRET detection reagents (100 mM Hepes pH 7.4, 0.1% BSA, 40 mM EDTA, 140 nM Streptavidin-XLent [#61GSTXLB, Fa. Cis Biointernational, Marcoule, France], 1.5 nM anti-phospho(Ser/Thr)-Europium-antibody [#AD0180, PerkinElmer LAS, Rodgau-Jugesheinn, Germany]. Instead of the 1.5 nM anti-phospho(Ser/Thr)-Europium-antibody a mixture of 2 nM unlabeled anti-phospho ser/thr-pro antibody MPM-2 [Millipore cat. #05-368] and 1 nM LANCE EU-W1024 labeled anti-mouse IgG antibody [Perkin-Elmer, product no. AD0077] can be used).
The resulting mixture was incubated 1 h at 22° C. to allow the binding of the phosphorylated peptide to the anti-phospho(Ser/Thr)-Europium-antibody. Subsequently the amount of phosphorylated substrate was evaluated by measurement of the resonance energy transfer from the Europium-labelled anti-phospho(Ser/Thr) antibody to the Streptavidin-XLent. Therefore, the fluorescence emissions at 620 nm and 665 nm after excitation at 350 nm was measured in a Viewlux TR-FRET reader (PerkinElmer LAS, Rodgau-Jugesheinn, Germany). The “blank-corrected normalized ratio” (a Viewlux specific readout, similar to the traditional ratio of the emissions at 665 nm and at 622 nm, in which blank and Eu-donor crosstalk are subtracted from the 665 nm signal before the ratio is calculated) was taken as the measure for the amount of phosphorylated substrate. The data were normalised (enzyme reaction without inhibitor=0% inhibition, all other assay components but no enzyme=100% inhibition).
In general terms: Time-resolved FRET reads energy transfer from a long-lived donor to a nearby acceptor.
With `Cc1nsc(Nc2cnc(C(F)(F)F)cn2)c1C(=O)Nc1ccc(O[C@@H]2CCN(CC(F)(F)F)C[C@@H]2F)nc1` [Example 138, N-(6-{[(3S,4R)-3-fluoro-1-(2,2,2-trifluoroethyl)piperidin-4-yl]oxy}pyridin-3-yl)-3-methyl-5-{[5-(trifluoromethyl)pyrazin-2-yl]amino}-1,2-thiazole-4-carboxamide], the IC50 is greater than 20 µM.

Take `Cc1nsc(Nc2cnc(C(F)(F)F)cn2)c1C(=O)Nc1ccc(O[C@@H]2CCN(CCC(F)(F)F)C[C@@H]2F)nc1` [Example 139, N-(6-{[(3S,4R)-3-fluoro-1-(3,3,3-trifluoropropyl)piperidin-4-yl]oxy}pyridin-3-yl)-3-methyl-5-{[5-(trifluoromethyl)pyrazin-2-yl]amino}-1,2-thiazole-4-carboxamide]: the IC50 is greater than 20 µM.

Consider `CCCN1CC[C@@H](Oc2ccc(NC(=O)c3c(C)nsc3Nc3cnc(C(F)(F)F)cn3)cn2)[C@@H](F)C1` [Example 140, N-(6-{[(3S,4R)-3-fluoro-1-propylpiperidin-4-yl]oxy}pyridin-3-yl)-3-methyl-5-{[5-(trifluoromethyl)pyrazin-2-yl]amino}-1,2-thiazole-4-carboxamide], for which the IC50 is greater than 20 µM. In the case of `Cc1nsc(Nc2cnc(C(F)(F)F)cn2)c1C(=O)Nc1ccc(O[C@H]2CCN(CC(F)F)C[C@H]2F)nc1` [Example 144, N-(6-{[(3R,4S)-1-(2,2-difluoroethyl)-3-fluoropiperidin-4-yl]oxy}pyridin-3-yl)-3-methyl-5-{[5-(trifluoromethyl)pyrazin-2-yl]amino}-1,2-thiazole-4-carboxamide], the IC50 was greater than 20 µM. On to `Cc1nsc(Nc2cnc(C(F)(F)F)cn2)c1C(=O)Nc1ccc(O[C@H]2CCN(CC(F)(F)F)C[C@H]2F)nc1` [Example 145, N-(6-{[(3R,4S)-3-fluoro-1-(2,2,2-trifluoroethyl)piperidin-4-yl]oxy}pyridin-3-yl)-3-methyl-5-{[5-(trifluoromethyl)pyrazin-2-yl]amino}-1,2-thiazole-4-carboxamide], for which the IC50 is greater than 20 µM. Turning to `Cc1nsc(Nc2cnc(C(F)(F)F)cn2)c1C(=O)Nc1ccc(O[C@H]2CCN(CCC(F)(F)F)C[C@H]2F)nc1` [Example 146, N-(6-{[(3R,4S)-3-fluoro-1-(3,3,3-trifluoropropyl)piperidin-4-yl]oxy}pyridin-3-yl)-3-methyl-5-{[5-(trifluoromethyl)pyrazin-2-yl]amino}-1,2-thiazole-4-carboxamide], the IC50 was greater than 20 µM. To `CCCN1CC[C@H](Oc2ccc(NC(=O)c3c(C)nsc3Nc3cnc(C(F)(F)F)cn3)cn2)[C@H](F)C1` [Example 147, N-(6-{[(3R,4S)-3-fluoro-1-propylpiperidin-4-yl]oxy}pyridin-3-yl)-3-methyl-5-{[5-(trifluoromethyl)pyrazin-2-yl]amino}-1,2-thiazole-4-carboxamide] belongs greater than 20 µM; to `Cc1nsc(Nc2cnc3cc(F)ccc3n2)c1C(=O)Nc1ccc(S(N)(=O)=O)cc1` [Example 149, 5-[(6-fluoroquinoxalin-2-yl)amino]-3-methyl-N-(4-sulfamoylphenyl)-1,2-thiazole-4-carboxamide], greater than 20 µM. In the case of `Cc1nsc(Nc2ccc(C#N)cn2)c1C(=O)Nc1cccc(S(C)(=O)=O)c1` [Example 150, 5-[(5-cyanopyridin-2-yl)amino]-3-methyl-N-[3-(methylsulfonyl)phenyl]-1,2-thiazole-4-carboxamide], the IC50 is greater than 20 µM.

Take `Cc1nsc(Nc2cnc(C(F)(F)F)cn2)c1C(=O)Nc1ccc(F)c(C(N)=O)c1` [Example 151, N-(3-carbamoyl-4-fluorophenyl)-3-methyl-5-{[5-(trifluoromethyl)pyrazin-2-yl]amino}-1,2-thiazole-4-carboxamide]: the IC50 was greater than 20 µM. To `CC(=O)Nc1cc(NC(=O)c2c(C)nsc2Nc2ccc(C#N)cn2)ccc1F` [Example 152, N-(3-acetamido-4-fluorophenyl)-5-[(5-cyanopyridin-2-yl)amino]-3-methyl-1,2-thiazole-4-carboxamide] belongs greater than 20 µM; to `Cc1nsc(Nc2cnc(C(F)(F)F)cn2)c1C(=O)Nc1ccc(C(=O)NCCN2CCCC(F)(F)C2)cc1` [Example 153, N-(4-{[2-(3,3-difluoropiperidin-1-yl)ethyl]carbamoyl}phenyl)-3-methyl-5-{[5-(trifluoromethyl)pyrazin-2-yl]amino}-1,2-thiazole-4-carboxamide], greater than 20 µM.

For the compound `Cc1nsc(Nc2cnc(C(F)(F)F)cn2)c1C(=O)Nc1ccc(C(=O)N2CCN(CC(F)F)CC2)cc1` [Example 154, N-(4-{[4-(2,2-difluoroethyl)piperazin-1-yl]carbonyl}phenyl)-3-methyl-5-{[5-(trifluoromethyl)pyrazin-2-yl]amino}-1,2-thiazole-4-carboxamide], the IC50 was greater than 20 µM. Under `Cc1nsc(Nc2cncc(C(F)(F)F)n2)c1C(=O)Nc1ccc(C(=O)NCCN2CCCC(F)C2)cc1` (stereo not drawn) [Example 155, N-(4-{[2-(3-fluoropiperidin-1-yl)ethyl]carbamoyl}phenyl)-3-methyl-5-{[6-(trifluoromethyl)pyrazin-2-yl]amino}-1,2-thiazole-4-carboxamide] stands 18 µM. To `Cc1nsc(Nc2cnc3ccccc3n2)c1C(=O)Nc1ccc(C(=O)NCCN2CCCC(F)(F)C2)cc1` [Example 156, N-(4-{[2-(3,3-difluoropiperidin-1-yl)ethyl]carbamoyl}phenyl)-3-methyl-5-(quinoxalin-2-ylamino)-1,2-thiazole-4-carboxamide] belongs greater than 20 µM; to `Cc1nsc(Nc2cnc3ccccc3n2)c1C(=O)Nc1ccc(C(=O)N2CCN(CC(F)F)CC2)cc1` [Example 157, N-(4-{[4-(2,2-difluoroethyl)piperazin-1-yl]carbonyl}phenyl)-3-methyl-5-(quinoxalin-2-ylamino)-1,2-thiazole-4-carboxamide], greater than 20 µM.

Turning to `Cc1nsc(Nc2cnc3ccccc3n2)c1C(=O)Nc1ccc(C(=O)NC2CN(C(=O)OC(C)(C)C)CC(F)(F)C2)cc1` (stereo not drawn) [Example 158, tert-butyl 3,3-difluoro-5-{[4-({[3-methyl-5-(quinoxalin-2-ylamino)-1,2-thiazol-4-yl]carbonyl}amino)benzoyl]amino} piperidine-1-carboxylate], the IC50 was greater than 20 µM.

On to `Cc1nsc(Nc2cnc3ccccc3n2)c1C(=O)Nc1ccc(C(=O)N2CCCN(CC(F)(F)F)CC2)cc1` [Example 159], for which the IC50 was greater than 20 µM.

(Values after patent publication US20170334899A1, “AMINO-SUBSTITUTED ISOTHIAZOLES” (Bayer Pharma Aktiengesellschaft, priority 2014, published 2017).)
